This assay relates to Alternaria solani. The experiment in a line: Activity against early blight of tomato caused by Alternaria solani. The assay is classed as in vivo. The settings on record: single active compound, leaves sprayed to runoff, infected next day, assessed after 5 days, efficacy in % of untreated control (Abbot). On the procedure:
The active compounds were prepared separately or jointly as a stock solution with 25 mg of active compound which was made up to 10 ml using a mixture of acetone and/or DMSO and the emulsifier Uniperol®) EL (wetting agent having emulsifying and dispersing action based on ethoxylated alkylphenols) in a volume ratio of solvent/emulsifier of 99 to 1. The mixture was then made up with water to 100 ml. This stock solution was diluted with the solvent/emulsifier/water mixture described to the concentration of active compounds stated below.
The visually determined percentages of infected leaf areas were converted into efficacies in % of the untreated control:
The efficacy (E) is calculated as follows using Abbot's formula: E=(1−α/β)·100 α corresponds to the fungicidal infection of the treated plants in % and β corresponds to the fungicidal infection of the untreated (control) plants in % An efficacy of 0 means that the infection level of the treated plants corresponds to that of the untreated control plants; an efficacy of 100 means that the treated plants were not infected.
The expected efficacies of mixtures of active compounds were determined using Colby's formula (Colby, S. R. “Calculating synergistic and antagonistic responses of herbicide combinations”, Weeds, 15, 20-22, 1967) and compared with the observed efficacies.
Colby's formula: E=x+y−x·y/100
E expected efficacy, expressed in % of the untreated control, when using the mixture of the active compounds A and B at the concentrations a and b x efficacy, expressed in % of the untreated control, when using the active compound A at the concentration a y efficacy, expressed in % of the untreated control, when using the active compound B at the concentration b Use Example—Activity Against Early Blight of Tomato Caused by Alternaria solani Leaves of potted plants of the cultivar “Goldene Königin” were sprayed to runoff point with an aqueous suspension having the concentration of active compound stated below. […]

The structures appear in SMILES notation.

Take `CO/C=C(/C(=O)OC)c1ccccc1CO/N=C(C)/C=C/c1ccc(Cl)cc1` [enestroburin (I), methyl 2-{2-[3-(4-chlorophenyl)-1-methylallylideneaminooxymethyl]phenyl}-3-methoxyacrylate]: the “Observed efficacy (%)” value (Conc. 4 ppm) turned out to be 22%.
For the compound `COc1cc(C)c(C(=O)c2c(OC)ccc(Br)c2C)c(OC)c1OC` [metrafenone (II-41), 3′-bromo-2,3,4,6′-tetramethoxy-2′,6-dimethylbenzophenone], the “Observed efficacy (%)” value is 0% (Conc. 1 ppm) and 0% (Conc. 4 ppm).

Source of the values: US20080009415A1, “Fungicidal Mixtures” (BASF Aktiengesellschaft, priority 2004, published 2008).
